Laboratory results published in the supplement of paper PMC11414989.

Key:
Conditions in all cases: exposure window: 6 hpf to 120 hpf, static, assay age: 120 hpf (5 dpf)
[1] = test system: Danio rerio larvae (Tropical 5D); assay: mean distance moved of exposed larvae, dark phase (µm per frame (1/25 s)); higher = more movement
Method: (§1)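 Larval photomotor response in Tropical 5D wild-type zebrafish. Larvae were statically exposed to each chemical from 6 hpf to 5 dpf in 96-well plates; morphologically abnormal larvae were excluded. At 120 hpf, larvae were tracked with Ethovision XT (25 frames/s) over the 2nd cycle of 3 min light and 3 min dark. Values are the mean movement metric of exposed larvae per phase; same-plate control means (plate-dependent baseline) are given as conditions.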

[2] = test system: Danio rerio larvae (Tropical 5D); assay: mean distance moved of exposed larvae, light phase (µm per frame (1/25 s)); higher = more movement
Method: as §1

[3] = test system: Danio rerio larvae (Tropical 5D); assay: mean angular velocity of exposed larvae, dark phase (angular velocity (unit not stated)); higher = more movement
Method: as §1

[4] = test system: Danio rerio larvae (Tropical 5D); assay: mean angular velocity of exposed larvae, light phase (angular velocity (unit not stated)); higher = more movement
Method: as §1

CCN(CCOP(=O)(O)O)S(=O)(=O)C(F)(F)C(F)(F)C(F)(F)C(F)(F)C(F)(F)C(F)(F)C(F)(F)C(F)(F)F
mean distance moved of exposed larvae ([1]; 0.25 µM): 23.4
mean distance moved of exposed larvae ([2]; 0.25 µM): 3.01
mean angular velocity of exposed larvae ([3]; 0.25 µM): 0.809
mean angular velocity of exposed larvae ([4]; 0.25 µM): 0.169

Cc1cccc2c1ccc1ccccc12 [1-Methylphenanthrene]
mean distance moved of exposed larvae ([1]; 1 µM): 14.6
mean distance moved of exposed larvae ([1]; 2.54 µM): 16.3
mean distance moved of exposed larvae ([1]; 6.45 µM): 19.4
mean distance moved of exposed larvae ([1]; 16.4 µM): 17.5
mean distance moved of exposed larvae ([1]; 35 µM): 21.2
mean distance moved of exposed larvae ([1]; 74.8 µM): 12.8
mean distance moved of exposed larvae ([1]; 100 µM): 10.4
mean distance moved of exposed larvae ([2]; 1 µM): 5.24
mean distance moved of exposed larvae ([2]; 2.54 µM): 4.47
mean distance moved of exposed larvae ([2]; 6.45 µM): 4.85
mean distance moved of exposed larvae ([2]; 16.4 µM): 5.17
mean distance moved of exposed larvae ([2]; 35 µM): 4.57
mean distance moved of exposed larvae ([2]; 74.8 µM): 4.58
mean distance moved of exposed larvae ([2]; 100 µM): 5.53
mean angular velocity of exposed larvae ([3]; 1 µM): 0.432
mean angular velocity of exposed larvae ([3]; 2.54 µM): 0.487
mean angular velocity of exposed larvae ([3]; 6.45 µM): 0.604
mean angular velocity of exposed larvae ([3]; 16.4 µM): 0.563
mean angular velocity of exposed larvae ([3]; 35 µM): 0.642
mean angular velocity of exposed larvae ([3]; 74.8 µM): 0.39
mean angular velocity of exposed larvae ([3]; 100 µM): 0.294
mean angular velocity of exposed larvae ([4]; 1 µM): 0.118
mean angular velocity of exposed larvae ([4]; 2.54 µM): 0.119
mean angular velocity of exposed larvae ([4]; 6.45 µM): 0.139
mean angular velocity of exposed larvae ([4]; 16.4 µM): 0.133
mean angular velocity of exposed larvae ([4]; 35 µM): 0.126
mean angular velocity of exposed larvae ([4]; 74.8 µM): 0.12
mean angular velocity of exposed larvae ([4]; 100 µM): 0.143

NC(O)(C(F)(F)F)C(F)(F)F [2-Aminohexafluoropropan-2-ol]
mean distance moved of exposed larvae ([1]; 0.015 µM): 17.5
mean distance moved of exposed larvae ([1]; 0.046 µM): 11.4
mean distance moved of exposed larvae ([1]; 0.14 µM): 13
mean distance moved of exposed larvae ([1]; 0.41 µM): 13
mean distance moved of exposed larvae ([1]; 1.23 µM): 6.93
mean distance moved of exposed larvae ([1]; 3.7 µM): 18.8
mean distance moved of exposed larvae ([1]; 11.1 µM): 11.2
mean distance moved of exposed larvae ([1]; 33.3 µM): 18.3
mean distance moved of exposed larvae ([1]; 66.5 µM): 14.6
mean distance moved of exposed larvae ([1]; 100 µM): 27.2
mean distance moved of exposed larvae ([2]; 0.015 µM): 1.1
mean distance moved of exposed larvae ([2]; 0.046 µM): 0.932
mean distance moved of exposed larvae ([2]; 0.14 µM): 0.925
mean distance moved of exposed larvae ([2]; 0.41 µM): 0.917
mean distance moved of exposed larvae ([2]; 1.23 µM): 0.251
mean distance moved of exposed larvae ([2]; 3.7 µM): 1.12
mean distance moved of exposed larvae ([2]; 11.1 µM): 0.717
mean distance moved of exposed larvae ([2]; 33.3 µM): 1.18
mean distance moved of exposed larvae ([2]; 66.5 µM): 0.668
mean distance moved of exposed larvae ([2]; 100 µM): 0.989
mean angular velocity of exposed larvae ([3]; 0.015 µM): 0.62
mean angular velocity of exposed larvae ([3]; 0.046 µM): 0.444
mean angular velocity of exposed larvae ([3]; 0.14 µM): 0.508
mean angular velocity of exposed larvae ([3]; 0.41 µM): 0.552
mean angular velocity of exposed larvae ([3]; 1.23 µM): 0.344
mean angular velocity of exposed larvae ([3]; 3.7 µM): 0.702
mean angular velocity of exposed larvae ([3]; 11.1 µM): 0.423
mean angular velocity of exposed larvae ([3]; 33.3 µM): 0.702
mean angular velocity of exposed larvae ([3]; 66.5 µM): 0.491
mean angular velocity of exposed larvae ([3]; 100 µM): 0.969
mean angular velocity of exposed larvae ([4]; 0.015 µM): 0.0444
mean angular velocity of exposed larvae ([4]; 0.046 µM): 0.0195
mean angular velocity of exposed larvae ([4]; 0.14 µM): 0.0424
mean angular velocity of exposed larvae ([4]; 0.41 µM): 0.0293
mean angular velocity of exposed larvae ([4]; 1.23 µM): 0.00969
mean angular velocity of exposed larvae ([4]; 3.7 µM): 0.0543
mean angular velocity of exposed larvae ([4]; 11.1 µM): 0.0181
mean angular velocity of exposed larvae ([4]; 33.3 µM): 0.0369
mean angular velocity of exposed larvae ([4]; 66.5 µM): 0.0243
mean angular velocity of exposed larvae ([4]; 100 µM): 0.0458

Cc1ccc2c(ccc3ccccc32)c1 [2-Methylphenanthrene]
mean distance moved of exposed larvae ([1]; 1 µM): 16.4
mean distance moved of exposed larvae ([1]; 2.54 µM): 12.1
mean distance moved of exposed larvae ([1]; 6.45 µM): 15
mean distance moved of exposed larvae ([1]; 16.4 µM): 15.5
mean distance moved of exposed larvae ([1]; 35 µM): 16.9
mean distance moved of exposed larvae ([1]; 74.8 µM): 13.3
mean distance moved of exposed larvae ([1]; 100 µM): 13.2
mean distance moved of exposed larvae ([2]; 1 µM): 2.38
mean distance moved of exposed larvae ([2]; 2.54 µM): 1.4
mean distance moved of exposed larvae ([2]; 6.45 µM): 1.73
mean distance moved of exposed larvae ([2]; 16.4 µM): 2.82
mean distance moved of exposed larvae ([2]; 35 µM): 1.74
mean distance moved of exposed larvae ([2]; 74.8 µM): 2.4
mean distance moved of exposed larvae ([2]; 100 µM): 1.83
mean angular velocity of exposed larvae ([3]; 1 µM): 0.536
mean angular velocity of exposed larvae ([3]; 2.54 µM): 0.424
mean angular velocity of exposed larvae ([3]; 6.45 µM): 0.539
mean angular velocity of exposed larvae ([3]; 16.4 µM): 0.592
mean angular velocity of exposed larvae ([3]; 35 µM): 0.507
mean angular velocity of exposed larvae ([3]; 74.8 µM): 0.473
mean angular velocity of exposed larvae ([3]; 100 µM): 0.439
mean angular velocity of exposed larvae ([4]; 1 µM): 0.0841
mean angular velocity of exposed larvae ([4]; 2.54 µM): 0.0709
mean angular velocity of exposed larvae ([4]; 6.45 µM): 0.0511
mean angular velocity of exposed larvae ([4]; 16.4 µM): 0.126
mean angular velocity of exposed larvae ([4]; 35 µM): 0.0754
mean angular velocity of exposed larvae ([4]; 74.8 µM): 0.0848
mean angular velocity of exposed larvae ([4]; 100 µM): 0.0583

O=C(O)CCC(F)(F)C(F)(F)C(F)(F)C(F)(F)C(F)(F)C(F)(F)C(F)(F)F [3-Perfluoroheptyl propanoic acid]
mean distance moved of exposed larvae ([1]; 0.25 µM): 12.1
mean distance moved of exposed larvae ([2]; 0.25 µM): 1.75
mean angular velocity of exposed larvae ([3]; 0.25 µM): 0.534
mean angular velocity of exposed larvae ([4]; 0.25 µM): 0.0662

O=C(O)CCC(F)(F)C(F)(F)C(F)(F)C(F)(F)C(F)(F)F [3-Perfluoropentyl propanoic acid]
mean distance moved of exposed larvae ([1]; 0.25 µM): 14.9
mean distance moved of exposed larvae ([2]; 0.25 µM): 1.49
mean angular velocity of exposed larvae ([3]; 0.25 µM): 0.61
mean angular velocity of exposed larvae ([4]; 0.25 µM): 0.0445

O=P(O)(O)C(F)(F)C(F)(F)C(F)(F)C(F)(F)C(F)(F)C(F)(F)Cl [6-Chloroperfluorohexylphosphonic acid]
mean distance moved of exposed larvae ([1]; 0.167 µM): 20.6
mean distance moved of exposed larvae ([2]; 0.167 µM): 6.62
mean angular velocity of exposed larvae ([3]; 0.167 µM): 0.789
mean angular velocity of exposed larvae ([4]; 0.167 µM): 0.212

O=P(O)(O)C(F)(F)C(F)(F)C(F)(F)C(F)(F)C(F)(F)C(F)(F)C(F)(F)C(F)(F)Cl [8-Chloroperfluorooctylphosphonic acid]
mean distance moved of exposed larvae ([1]; 0.167 µM): 24.4
mean distance moved of exposed larvae ([2]; 0.167 µM): 7.53
mean angular velocity of exposed larvae ([3]; 0.167 µM): 0.9
mean angular velocity of exposed larvae ([4]; 0.167 µM): 0.234

C[Si](C)(C)C(F)(F)C(F)(F)C(F)(F)F [(Heptafluoropropyl)trimethylsilane]
mean distance moved of exposed larvae ([1]; 0.015 µM): 13.3
mean distance moved of exposed larvae ([1]; 0.046 µM): 19.7
mean distance moved of exposed larvae ([1]; 0.14 µM): 19.1
mean distance moved of exposed larvae ([1]; 0.41 µM): 16.9
mean distance moved of exposed larvae ([1]; 1.23 µM): 22.6
mean distance moved of exposed larvae ([1]; 3.7 µM): 12.9
mean distance moved of exposed larvae ([1]; 11.1 µM): 18.6
mean distance moved of exposed larvae ([1]; 33.3 µM): 15.3
mean distance moved of exposed larvae ([1]; 66.5 µM): 25.7
mean distance moved of exposed larvae ([1]; 100 µM): 24.3
mean distance moved of exposed larvae ([2]; 0.015 µM): 1.23
mean distance moved of exposed larvae ([2]; 0.046 µM): 1.25
mean distance moved of exposed larvae ([2]; 0.14 µM): 1.98
mean distance moved of exposed larvae ([2]; 0.41 µM): 1.51
mean distance moved of exposed larvae ([2]; 1.23 µM): 1.46
mean distance moved of exposed larvae ([2]; 3.7 µM): 0.916
mean distance moved of exposed larvae ([2]; 11.1 µM): 2.09
mean distance moved of exposed larvae ([2]; 33.3 µM): 1.5
mean distance moved of exposed larvae ([2]; 66.5 µM): 1.57
mean distance moved of exposed larvae ([2]; 100 µM): 2.09
mean angular velocity of exposed larvae ([3]; 0.015 µM): 0.571
mean angular velocity of exposed larvae ([3]; 0.046 µM): 0.779
mean angular velocity of exposed larvae ([3]; 0.14 µM): 0.81
mean angular velocity of exposed larvae ([3]; 0.41 µM): 0.637
mean angular velocity of exposed larvae ([3]; 1.23 µM): 0.884
mean angular velocity of exposed larvae ([3]; 3.7 µM): 0.521
mean angular velocity of exposed larvae ([3]; 11.1 µM): 0.685
mean angular velocity of exposed larvae ([3]; 33.3 µM): 0.594
mean angular velocity of exposed larvae ([3]; 66.5 µM): 0.949
mean angular velocity of exposed larvae ([3]; 100 µM): 1.01
mean angular velocity of exposed larvae ([4]; 0.015 µM): 0.0325
mean angular velocity of exposed larvae ([4]; 0.046 µM): 0.0534
mean angular velocity of exposed larvae ([4]; 0.14 µM): 0.0675
mean angular velocity of exposed larvae ([4]; 0.41 µM): 0.0607
mean angular velocity of exposed larvae ([4]; 1.23 µM): 0.048
mean angular velocity of exposed larvae ([4]; 3.7 µM): 0.0422
mean angular velocity of exposed larvae ([4]; 11.1 µM): 0.0925
mean angular velocity of exposed larvae ([4]; 33.3 µM): 0.0521
mean angular velocity of exposed larvae ([4]; 66.5 µM): 0.0503
mean angular velocity of exposed larvae ([4]; 100 µM): 0.0731
